As usually defined, the IC50 is the concentration that gives 50% inhibition. As usually defined, the Ki is a dissociation constant, usually derived from enzyme kinetics or from competition with a known ligand.

The target of assay [1] is D(3) dopamine receptor (Homo sapiens, UniProt P35462). Briefly: DRUGMATRIX: Dopamine D3 radioligand binding (ligand: [3H] Spiperone). It is filed as cell membranes, CHO, Membrane.
Assay [2] addresses Sodium-dependent noradrenaline transporter (Homo sapiens, UniProt P23975). Briefly: DRUGMATRIX: Norepinephrine Transporter radioligand binding (ligand: [125I] RTI-55). It is filed as cell membranes, MDCK, Membrane. The note with it: Not Active = under 50% inhibition at 10 µM.
For assay [3], the target named is T1, Estrogen receptor (Homo sapiens, UniProt P03372).
T1 sequence (P03372 whole entry): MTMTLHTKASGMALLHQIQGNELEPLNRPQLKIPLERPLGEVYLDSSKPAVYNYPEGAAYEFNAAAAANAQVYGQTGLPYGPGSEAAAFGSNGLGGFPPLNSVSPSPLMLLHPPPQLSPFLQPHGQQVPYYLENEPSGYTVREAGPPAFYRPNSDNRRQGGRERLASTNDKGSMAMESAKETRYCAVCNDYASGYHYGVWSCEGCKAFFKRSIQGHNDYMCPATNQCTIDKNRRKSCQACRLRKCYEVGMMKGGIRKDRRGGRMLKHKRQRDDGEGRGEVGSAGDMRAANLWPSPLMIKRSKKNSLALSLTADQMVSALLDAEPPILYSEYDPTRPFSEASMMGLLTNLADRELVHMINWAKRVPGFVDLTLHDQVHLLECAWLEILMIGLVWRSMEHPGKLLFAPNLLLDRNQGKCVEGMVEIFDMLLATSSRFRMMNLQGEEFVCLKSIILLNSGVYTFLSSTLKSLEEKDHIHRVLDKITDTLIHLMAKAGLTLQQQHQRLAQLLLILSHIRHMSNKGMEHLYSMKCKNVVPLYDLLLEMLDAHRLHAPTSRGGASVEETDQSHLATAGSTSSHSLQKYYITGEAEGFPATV
The note with it: sf9.

The nature of assay [4]: DRUGMATRIX: GABAA, Flunitrazepam, Central radioligand binding (ligand: [3H] Flunitrazepam). The class given is cell membranes, Rattus norvegicus, Wistar, Brain, Membrane. The note with it: Not Active = under 50% inhibition at 10 µM.
Assay [5] can be described thus: DRUGMATRIX: Calcium Channel Type L, Dihydropyridine radioligand binding (ligand: [3H] Nitrendipine). The class given is cell membranes, Rattus norvegicus, Wistar, Cerebral cortex, Membrane. The note with it: Not Active = under 50% inhibition at 10 µM.
The target in assay [6] is Estrogen receptor beta (Homo sapiens, UniProt Q92731). The note with it: sf9. Also: in other assays of this panel Not Active means under 50% inhibition at 10 µM.
In assay [7] the target is T2, C-X-C chemokine receptor type 1 (Homo sapiens, UniProt P25024). Also: in other assays of this panel Not Active means under 50% inhibition at 10 µM.
T2 sequence (P25024 whole entry): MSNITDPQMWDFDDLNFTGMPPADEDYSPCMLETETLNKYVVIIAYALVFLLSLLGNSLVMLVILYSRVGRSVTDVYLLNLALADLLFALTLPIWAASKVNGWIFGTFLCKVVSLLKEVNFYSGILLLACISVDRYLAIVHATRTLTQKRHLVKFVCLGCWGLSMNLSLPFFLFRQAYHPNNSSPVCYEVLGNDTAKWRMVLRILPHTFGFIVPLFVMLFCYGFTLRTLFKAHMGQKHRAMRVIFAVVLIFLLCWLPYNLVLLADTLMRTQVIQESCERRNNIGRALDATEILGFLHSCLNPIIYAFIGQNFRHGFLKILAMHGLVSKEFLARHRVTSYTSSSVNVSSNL

Sodium-dependent noradrenaline transporter, sequence (P23975 whole entry): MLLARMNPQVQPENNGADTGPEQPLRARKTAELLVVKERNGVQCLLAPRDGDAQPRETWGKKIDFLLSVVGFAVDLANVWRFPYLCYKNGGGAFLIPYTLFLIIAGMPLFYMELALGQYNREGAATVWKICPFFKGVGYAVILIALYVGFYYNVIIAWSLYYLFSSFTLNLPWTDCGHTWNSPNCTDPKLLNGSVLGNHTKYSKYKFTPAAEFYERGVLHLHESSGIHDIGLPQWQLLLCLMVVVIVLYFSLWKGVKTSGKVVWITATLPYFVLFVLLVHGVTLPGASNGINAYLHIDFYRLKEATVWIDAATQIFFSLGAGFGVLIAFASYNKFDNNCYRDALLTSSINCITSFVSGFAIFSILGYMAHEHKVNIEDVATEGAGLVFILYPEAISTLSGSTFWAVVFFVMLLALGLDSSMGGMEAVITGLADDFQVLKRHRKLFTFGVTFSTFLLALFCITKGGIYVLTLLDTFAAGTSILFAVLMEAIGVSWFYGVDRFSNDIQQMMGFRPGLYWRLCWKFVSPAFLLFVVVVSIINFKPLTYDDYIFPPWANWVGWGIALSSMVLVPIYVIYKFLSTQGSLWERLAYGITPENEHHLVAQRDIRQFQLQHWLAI
D(3) dopamine receptor, sequence (P35462 whole entry): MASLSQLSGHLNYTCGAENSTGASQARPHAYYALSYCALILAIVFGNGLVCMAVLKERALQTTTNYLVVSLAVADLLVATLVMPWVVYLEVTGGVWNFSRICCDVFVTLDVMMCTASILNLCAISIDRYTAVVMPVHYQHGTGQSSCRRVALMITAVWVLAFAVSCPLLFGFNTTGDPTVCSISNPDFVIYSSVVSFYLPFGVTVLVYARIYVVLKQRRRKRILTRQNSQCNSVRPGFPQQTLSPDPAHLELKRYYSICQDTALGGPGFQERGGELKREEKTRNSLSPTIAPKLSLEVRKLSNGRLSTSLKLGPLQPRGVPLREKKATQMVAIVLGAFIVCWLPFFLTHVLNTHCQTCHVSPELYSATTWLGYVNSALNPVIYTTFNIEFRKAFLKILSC
Estrogen receptor beta, sequence (Q92731 whole entry): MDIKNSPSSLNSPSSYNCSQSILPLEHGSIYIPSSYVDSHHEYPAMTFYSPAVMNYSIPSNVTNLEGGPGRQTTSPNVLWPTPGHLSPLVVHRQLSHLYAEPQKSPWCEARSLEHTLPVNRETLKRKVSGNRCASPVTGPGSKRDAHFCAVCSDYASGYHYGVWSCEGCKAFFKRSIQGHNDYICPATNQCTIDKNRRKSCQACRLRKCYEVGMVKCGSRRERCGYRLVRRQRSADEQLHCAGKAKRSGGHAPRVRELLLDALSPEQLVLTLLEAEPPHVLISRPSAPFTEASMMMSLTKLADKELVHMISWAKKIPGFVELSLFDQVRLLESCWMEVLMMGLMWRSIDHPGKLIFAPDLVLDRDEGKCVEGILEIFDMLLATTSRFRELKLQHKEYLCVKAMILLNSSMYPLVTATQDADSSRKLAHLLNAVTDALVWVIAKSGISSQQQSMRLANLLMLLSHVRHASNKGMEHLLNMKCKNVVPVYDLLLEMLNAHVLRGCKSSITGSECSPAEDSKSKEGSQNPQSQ

Turning to `c1ccc(Cn2ccnc2)cc1`, the IC50 entry in assay [1] (cho), in assay [2] (mdck), in assay [3], in assay [4], in assay [5] and in assay [6] was “Not Active” each time. For the same compound, the IC50 entry in assay [7] is recorded as “Not Active”. Further, the Ki entry in assay [4] and in assay [5] was “Not Active” throughout.
In the case of `CN(CCOc1ccc(C[C@H](Nc2ccccc2C(=O)c2ccccc2)C(=O)O)cc1)c1ccccn1`, the IC50 result in assay [1] (cho) was “Not Active”; in assay [2] (read-out: IC50), 40.3 µM; in assay [3], “Not Active”; in assay [4] it was “Not Active”; in assay [5], “Not Active”; in assay [6], “Not Active”. Moreover, in assay [7], the IC50 entry was “Not Active”. Also, the Ki in assay [2] (read-out: Ki) was 40 µM; in assay [4], “Not Active”; in assay [5], “Not Active”.
As for `O=c1[nH]c2ccccc2c2ccccc12`, the IC50 result in assay [1] (cho), in assay [2] (mdck), in assay [3], in assay [4], in assay [5] and in assay [6] was “Not Active” in each case. Besides, in assay [7], the half-inhibitory concentration (IC50) result was “Not Active”. For the same compound, the Ki entry in assay [4] and in assay [5] was “Not Active” throughout.
Consider `CO[C@H]1O[C@@H]2O[C@@]3(C)CC[C@H]4[C@H](C)CC[C@@H]([C@H]1C)[C@@]24OO3`, for which the IC50 entry in assay [1] (cho), in assay [2] (mdck), in assay [3], in assay [4], in assay [5] and in assay [6] was “Not Active” throughout. Moreover, the IC50 result in assay [7] is reported as “Not Active”. The Ki entry in assay [4] and in assay [5] was “Not Active” throughout.
In the case of `C=C(Cl)Cl` [1,1-DICHLOROETHENE], the IC50 result in assay [1] (cho), in assay [2] (mdck), in assay [3], in assay [4], in assay [5] and in assay [7] was “Not Active” throughout. For the same compound, the Ki entry in assay [4] and in assay [5] was “Not Active” each time.
Turning to `CC(C)NCC(O)COc1ccc(CC(N)=O)cc1` (configuration not stated) [ATENOLOL], the IC50 entry in assay [1] (cho), in assay [2] (mdck), in assay [3], in assay [4], in assay [5] and in assay [7] was “Not Active” each time. Besides, the Ki entry in assay [4] and in assay [5] was “Not Active” throughout.
Turning to `O=C(O)c1ccccc1` [BENZOIC ACID], the IC50 result in assay [1] (cho), in assay [2] (mdck), in assay [3], in assay [4], in assay [5] and in assay [7] was “Not Active” throughout. Besides, the inhibitory constant (Ki) result in assay [4] and in assay [5] was “Not Active” throughout.
As for `c1ccc2sc(SSc3nc4ccccc4s3)nc2c1` [BENZOTHIAZYL DISULFIDE], the IC50 in assay [1] (read-out: IC50) is 0.851 µM; in assay [2] (mdck), “Not Active”; in assay [3] it was “Not Active”; in assay [4], “Not Active”; in assay [5] it was “Not Active”; in assay [7], “Not Active”. Also, the Ki in assay [1] (read-out: Ki) was 0.289 µM; in assay [4] it was “Not Active”; in assay [5], “Not Active”.
On to `Cc1c(N)nc([C@H](CC(N)=O)NC[C@H](N)C(N)=O)nc1C(=O)N[C@H](C(=O)N[C@H](C)[C@@H](O)[C@H](C)C(=O)N[C@H](C(=O)NCCc1nc(-c2nc(C(=O)NCCC[S+](C)C)cs2)cs1)[C@@H](C)O)[C@@H](O[C@@H]1O[C@@H](CO)[C@@H](O)[C@H](O)[C@@H]1O[C@H]1O[C@H](CO)[C@@H](O)[C@H](OC(N)=O)[C@@H]1O)c1c[nH]cn1.[Br-]` [BLEOMYCIN A2], for which the IC50 result in assay [1] (cho), in assay [2] (mdck), in assay [3], in assay [4], in assay [5] and in assay [7] was “Not Active” in each case. The Ki entry in assay [4] and in assay [5] was “Not Active” in each case.
Regarding `O=c1[nH]cnc2c1ncn2[C@H]1CC[C@@H](CO)O1` [DIDANOSINE], the IC50 entry in assay [1] (cho), in assay [2] (mdck), in assay [3], in assay [4], in assay [5] and in assay [7] was “Not Active” in each case. Moreover, the Ki entry in assay [4] and in assay [5] was “Not Active” in each case.
Regarding `ClC1=C(Cl)[C@]2(Cl)[C@@H]3[C@@H]4C[C@@H]([C@H]5O[C@@H]45)[C@@H]3[C@@]1(Cl)C2(Cl)Cl` [DIELDRIN], the IC50 entry in assay [1] (cho), in assay [2] (mdck), in assay [3], in assay [4], in assay [5] and in assay [7] was “Not Active” each time. Besides, the Ki entry in assay [4] and in assay [5] was “Not Active” throughout.
On to `CNC[C@H](O)c1ccc(O)c(O)c1` [EPINEPHRINE], for which the IC50 result in assay [1] (cho), in assay [2] (mdck), in assay [3], in assay [4], in assay [5] and in assay [7] was “Not Active” each time. For the same compound, the Ki result in assay [4] and in assay [5] was “Not Active” in each case.
Regarding `CC12CCC(CC1)C(C)(C)O2` [EUCALYPTOL], the IC50 result in assay [1] (cho), in assay [2] (mdck), in assay [3], in assay [4], in assay [5] and in assay [7] was “Not Active” each time. Besides, the Ki result in assay [4] and in assay [5] was “Not Active” throughout.
As to `NC(N)=Nc1nc(CSCCC(N)=NS(N)(=O)=O)cs1` [FAMOTIDINE], the IC50 entry in assay [1] (cho), in assay [2] (mdck), in assay [3], in assay [4], in assay [5] and in assay [7] was “Not Active” throughout. The Ki entry in assay [4] and in assay [5] was “Not Active” each time.
For the compound `NS(=O)(=O)c1cc(C(=O)O)c(NCc2ccco2)cc1Cl` [FUROSEMIDE], the IC50 result in assay [1] (cho), in assay [2] (mdck), in assay [3], in assay [4], in assay [5] and in assay [7] was “Not Active” throughout. For the same compound, the Ki entry in assay [4] and in assay [5] was “Not Active” in each case.
For the compound `CC(=O)[C@]1(O)Cc2c(O)c3c(c(O)c2[C@@H](O[C@H]2C[C@H](N)[C@H](O)[C@H](C)O2)C1)C(=O)c1ccccc1C3=O` [IDARUBICIN], the IC50 result in assay [1] (cho), in assay [2] (mdck), in assay [3], in assay [4], in assay [5] and in assay [7] was “Not Active” in each case. Moreover, the Ki entry in assay [4] and in assay [5] was “Not Active” throughout.
As for `O=C1c2ccccc2C(=O)C1c1ccccc1` [PHENINDIONE], the half-maximal inhibitory concentration (IC50) result in assay [1] (cho), in assay [2] (mdck), in assay [3], in assay [4], in assay [5] and in assay [7] was “Not Active” throughout. Also, the Ki result in assay [4] and in assay [5] was “Not Active” in each case.

The values above are taken from ChEMBL document CHEMBL1909046, “DrugMatrix in vitro pharmacology data”.
